target: Pol theta (1-899) (Homo sapiens (Human), UniProt O75417); experiment: Pol theta ATPase activity, NADH oxidation-coupled enzymatic assay; type: biochemical; conditions: Pol theta (1-899) 10 nM, ATP, dT50 ssDNA, absorbance 340 nm, 10-point dilution series; read-out: ATPase NADH coupling:Standard Screening:hPolQ IC50
Procedure: The ability of the compounds of Formula (I) to inhibit ATPase activity of Pol theta (1-899) was determined using the assay described below.
Pol Theta ATPase activity was determined by measuring the rate of ATP turn over in a NADH oxidation-coupled enzymatic assay. 10-point dilution series of compounds were used in a 384 well format for the inhibition assays. Pol theta (1-899) (10 nM) in assay buffer (20 mM Tris HCl (pH 7.80), 80 mM KCl, 10 mM MgCl2, 1 mM DTT, 0.01% BSA, 0.01% Tween, 5% glycerol) was transferred to the test wells (20 μL), except the low control wells (20 μL of assay buffer was added to the low control wells). The plate was then incubated at room temperature for 15 min. An equal volume (20 μL) of 100 μM ATP, 300 nM dT50 (single-stranded DNA (ssDNA) containing 50 thymine bases), 300 μM NADH, 6 mM PEP, 10 U/mL lactate dehydrogenase and 20 U/mL pyruvate kinase in assay buffer was added to all the test wells. The plate was then centrifuged at 1000 rpm for 1 min. The reaction was monitored for 30 min by measuring absorbance (λ=340 nm) in a Tecan Spark multimode plate reader every minute. The high control (DMSO with enzyme) with low absorbance intensity represents no inhibition of ATPase reaction while the low control (DMSO with buffer) with high absorbance intensity represents full inhibition of ATPase activity. Slope of the reaction progress curves were used to calculate the rate of ATP hydrolysis. The rates were used to determine the percent inhibition using a four-parameter inhibition model to generate IC50, Hill slope and max inhibition.

Sequence of Pol theta (1-899) (O75417 1-899): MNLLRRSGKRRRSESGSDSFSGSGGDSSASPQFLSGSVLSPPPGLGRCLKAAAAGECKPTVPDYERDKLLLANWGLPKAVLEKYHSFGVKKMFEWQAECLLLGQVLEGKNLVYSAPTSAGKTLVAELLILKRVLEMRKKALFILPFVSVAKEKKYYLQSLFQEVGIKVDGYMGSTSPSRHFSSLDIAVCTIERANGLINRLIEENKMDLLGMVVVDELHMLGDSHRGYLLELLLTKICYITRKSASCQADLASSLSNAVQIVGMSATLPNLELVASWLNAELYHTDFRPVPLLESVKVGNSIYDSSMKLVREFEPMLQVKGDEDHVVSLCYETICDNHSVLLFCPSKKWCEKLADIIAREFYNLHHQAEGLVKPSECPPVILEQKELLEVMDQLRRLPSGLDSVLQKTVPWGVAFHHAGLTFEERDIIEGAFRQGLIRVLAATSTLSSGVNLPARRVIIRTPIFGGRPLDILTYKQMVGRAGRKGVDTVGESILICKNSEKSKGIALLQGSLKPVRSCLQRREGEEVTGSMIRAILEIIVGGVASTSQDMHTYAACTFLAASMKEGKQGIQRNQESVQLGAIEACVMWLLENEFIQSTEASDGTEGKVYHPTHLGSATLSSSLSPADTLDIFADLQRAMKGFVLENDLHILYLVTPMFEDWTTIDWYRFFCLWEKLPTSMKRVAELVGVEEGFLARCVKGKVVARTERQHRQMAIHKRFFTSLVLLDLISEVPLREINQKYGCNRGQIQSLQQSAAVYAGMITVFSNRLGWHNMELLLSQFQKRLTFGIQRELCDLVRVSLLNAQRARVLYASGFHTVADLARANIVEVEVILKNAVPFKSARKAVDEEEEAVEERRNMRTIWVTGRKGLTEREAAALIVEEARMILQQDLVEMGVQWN

IC50 [µM]	SMILES
1 to 10	NC(=O)c1ccc(C(=O)Nc2nnc(OCc3ccc(Cl)cc3)s2)c(N2CCOCC2)n1 [Example 21, N^5-(5-((4-chlorobenzyl)oxy)-1,3,4-thiadiazol-2-yl)-6-morpholinopyridine-2,5-dicarboxamide]
0.2 to 0.5	O=C1CN(c2ncccc2C(=O)Nc2nnc(OCc3ccc(Cl)cc3)s2)CCN1 [Example 27, N-(5-((4-chlorobenzyl)oxy)-1,3,4-thiadiazol-2-yl)-2-(3-oxopiperazin-1-yl)nicotinamide]
≤ 0.2	O=C(Nc1nnc(OCc2ccc(Cl)cc2)s1)c1cccnc1N1CCOC2(CC2)C1 [Example 30, N-(5-((4-chlorobenzyl)oxy)-1,3,4-thiadiazol-2-yl)-2-(4-oxa-7-azaspiro[2.5]octan-7-yl)nicotinamide]
0.2 to 0.5	N#Cc1ccc(C(=O)Nc2nnc(OCc3ccc(Cl)cn3)s2)c(N2CCOCC2)n1 [Example 32]
≤ 0.2	N#Cc1cc(N2CCOCC2)c(C(=O)Nc2nnc(OCc3ccc(Cl)cc3)s2)cn1 [Example 35, N-(5-((4-chlorobenzyl)oxy)-1,3,4-thiadiazol-2-yl)-6-cyano-4-morpholinonicotinamide]
0.2 to 0.5	O=C(Nc1nnc(OCc2ccc(Br)cc2)s1)c1cccnc1N1CCOCC1 [Example 40, N-(5-((4-bromobenzyl)oxy)-1,3,4-thiadiazol-2-yl)-2-morpholinonicotinamide]
1 to 10	O=C(Nc1nnc(OCc2ccc(Cl)cc2)s1)c1c[nH]c(=O)cc1N1CCOCC1 [Example 41, N-(5-((4-chlorobenzyl)oxy)-1,3,4-thiadiazol-2-yl)-4-morpholino-6-oxo-1,6-dihydropyridine-3-carboxamide or its tautomer N-(5-((4-chlorobenzyl)oxy)-1,3,4-thiadiazol-2-yl)-6-hydroxy-4-morpholinonicotinamide]
≤ 0.2	N#Cc1ccc(C(=O)Nc2nnc(OCc3ccc(Cl)cc3)s2)c(N2CCOC3(CC3)C2)n1 [Example 44, N-(5-((4-chlorobenzyl)oxy)-1,3,4-thiadiazol-2-yl)-6-cyano-2-(4-oxa-7-azaspiro[2.5]octan-7-yl)nicotinamide]
0.5 to 1	CN1CCN(c2ncccc2C(=O)Nc2nnc(OCc3ccc(Cl)cc3)s2)CC1=O [Example 45, N-[5-[(4-chlorophenyl)methoxy]-1,3,4-thiadiazol-2-yl]-2-(4-methyl-3-oxopiperazin-1-yl)pyridine-3-carboxamide]
0.2 to 0.5	NC(=O)c1cc(N2CCOCC2)c(C(=O)Nc2nnc(OCc3ccc(Cl)cc3)s2)cn1 [Example 48, N^5-(5-((4-chlorobenzyl)oxy)-1,3,4-thiadiazol-2-yl)-4-morpholinopyridine-2,5-dicarboxamide]
0.5 to 1	O=C(Nc1nnc(OCc2ccc(Cl)cc2)s1)c1cccnc1C1=CCOCC1 [Example 53, N-(5-((4-chlorobenzyl)oxy)-1,3,4-thiadiazol-2-yl)-2-(3,6-dihydro-2H-pyran-4-yl)nicotinamide]
0.5 to 1	O=C(Nc1nnc(OCc2ccc(Cl)cc2)s1)c1cccnc1C1CCOCC1 [Example 54, N-[5-[(4-chlorophenyl)methoxy]-1,3,4-thiadiazol-2-yl]-2-(oxan-4-yl)pyridine-3-carboxamide]
0.5 to 1	O=C(Nc1nnc(OCc2ccc(Cl)cc2)s1)c1ccc(Br)nc1N1CCOCC1 [Example 58, 6-bromo-N-(5-((4-chlorobenzyl)oxy)-1,3,4-thiadiazol-2-yl)-2-morpholinonicotinamide]

Further lines, the compound ahead of its results:

SMILES	IC50 [µM]
C[C@@H]1COCCN1c1ncccc1C(=O)Nc1nnc(OCc2ccc(Cl)cn2)s1 [Example 22, (R)—N-(5-((5-chloropyridin-2-yl)methoxy)-1,3,4-thiadiazol-2-yl)-2-(3-methylmorpholino)nicotinamide]	1 to 10
CS(=O)(=O)N1CCN(c2ncccc2C(=O)Nc2nnc(OCc3ccc(Cl)cn3)s2)CC1 [Example 23, N-(5-((5-chloropyridin-2-yl)methoxy)-1,3,4-thiadiazol-2-yl)-2-(4-(methylsulfonyl)piperazin-1-yl)nicotinamide]	1 to 10
O=C(Nc1nnc(OCc2ccc(Cl)cn2)s1)c1ccnn1-c1ccccc1 [Example 24, N-(5-((5-chloropyridin-2-yl)methoxy)-1,3,4-thiadiazol-2-yl)-1-phenyl-1H-pyrazole-5-carboxamide]	1 to 10
O=C(Nc1nnc(OCc2ccc(Cl)cn2)s1)c1cnnn1-c1ccccc1 [Example 25, N-(5-((5-chloropyridin-2-yl)methoxy)-1,3,4-thiadiazol-2-yl)-1-phenyl-1H-1,2,3-triazole-5-carboxamide]	1 to 10
O=C(Nc1nnc(OCc2ccc(Cl)cn2)s1)c1cncn1-c1ccccc1Cl [Example 26, 3-(2-chlorophenyl)-N-[5-[(5-chloropyridin-2-yl)methoxy]-1,3,4-thiadiazol-2-yl]imidazole-4-carboxamide]	0.2 to 0.5
CN(C)C(=O)N1CCN(c2ncccc2C(=O)Nc2nnc(OCc3ccc(Cl)cc3)s2)CC1 [Example 28, 4-(3-((5-((4-chlorobenzyl)oxy)-1,3,4-thiadiazol-2-yl)carbamoyl)pyridin-2-yl)-N,N-dimethylpiperazine-1-carboxamide]	1 to 10
COc1ccc(-n2cncc2C(=O)Nc2nnc(OCc3ccc(Cl)cc3)s2)c(OC)c1 [Example 31, N-(5-((4-chlorobenzyl)oxy)-1,3,4-thiadiazol-2-yl)-1-(2,4-dimethoxyphenyl)-1H-imidazole-5-carboxamide]	≤ 0.2
N#Cc1cnc(N2CCOCC2)c(C(=O)Nc2nnc(OCc3ccc(Cl)cn3)s2)c1 [Example 33, N-(5-((5-chloropyridin-2-yl)methoxy)-1,3,4-thiadiazol-2-yl)-5-cyano-2-morpholinonicotinamide]	0.5 to 1
COc1cc(COc2nnc(NC(=O)c3cccnc3N3CCOCC3)s2)ccc1Cl [Example 34, N-(5-((4-chloro-3-methoxybenzyl)oxy)-1,3,4-thiadiazol-2-yl)-2-morpholinonicotinamide]	1 to 10
COc1cc(N2CCOCC2)c(C(=O)Nc2nnc(OCc3ccc(Cl)cn3)s2)cn1 [Example 36, N-(5-((5-chloropyridin-2-yl)methoxy)-1,3,4-thiadiazol-2-yl)-6-methoxy-4-morpholinonicotinamide]	1 to 10
O=C(Nc1nnc(OCc2ccc(Cl)cn2)s1)c1cccnc1N1CCS(=O)(=O)CC1 [Example 37, N-(5-((5-chloropyridin-2-yl)methoxy)-1,3,4-thiadiazol-2-yl)-2-(1,1-dioxidothiomorpholino)nicotinamide]	1 to 10
O=C(Nc1nnc(OCc2ccc(Cl)cn2)s1)c1cncn1-c1ccccn1 [Example 38, N-(5-((5-chloropyridin-2-yl)methoxy)-1,3,4-thiadiazol-2-yl)-1-(pyridin-2-yl)-1H-imidazole-5-carboxamide]	1 to 10
O=C(Nc1nnc(OCc2ccc(Cl)cn2)s1)c1cccnc1N1CCC(F)(F)CC1 [Example 39, N-(5-((5-chloropyridin-2-yl)methoxy)-1,3,4-thiadiazol-2-yl)-2-(4,4-difluoropiperidin-1-yl)nicotinamide]	1 to 10
O=C(Nc1nnc(OCc2ccc(Cl)cc2)s1)c1cncn1-c1ccccc1Cl [Example 42, N-(5-((4-chlorobenzyl)oxy)-1,3,4-thiadiazol-2-yl)-1-(2-chlorophenyl)-1H-imidazole-5-carboxamide]	≤ 0.2
N#Cc1ccccc1-n1cncc1C(=O)Nc1nnc(OCc2ccc(Cl)cc2)s1 [Example 43, N-(5-((4-chlorobenzyl)oxy)-1,3,4-thiadiazol-2-yl)-1-(2-cyanophenyl)-1H-imidazole-5-carboxamide]	0.2 to 0.5
O=C(Nc1nnc(OCc2ccc(C3CC3)cc2)s1)c1cccnc1N1CCOCC1 [Example 47, N-(5-((4-cyclopropylbenzyl)oxy)-1,3,4-thiadiazol-2-yl)-2-morpholinonicotinamide]	0.2 to 0.5
COc1cccc(-n2cncc2C(=O)Nc2nnc(OCc3ccc(Cl)cc3)s2)c1 [Example 49, N-(5-((4-chlorobenzyl)oxy)-1,3,4-thiadiazol-2-yl)-1-(3-methoxyphenyl)-1H-imidazole-5-carboxamide]	0.5 to 1
COc1ccccc1-n1cncc1C(=O)Nc1nnc(OCc2ccc(Cl)cc2)s1 [Example 50, N-(5-((4-chlorobenzyl)oxy)-1,3,4-thiadiazol-2-yl)-1-(2-methoxyphenyl)-1H-imidazole-5-carboxamide]	≤ 0.2
O=C(Nc1nnc(OCc2ccc(Cl)cn2)s1)c1cccnc1-c1ccccc1Cl [Example 51, 2-(2-chlorophenyl)-N-[5-[(5-chloropyridin-2-yl)methoxy]-1,3,4-thiadiazol-2-yl]pyridine-3-carboxamide]	1 to 10
O=C(Nc1nnc(OCc2ccc(Cl)cc2)s1)c1cncn1C1CCOCC1 [Example 55, N-(5-((4-chlorobenzyl)oxy)-1,3,4-thiadiazol-2-yl)-1-(tetrahydro-2H-pyran-4-yl)-1H-imidazole-5-carboxamide]	1 to 10
O=C(Nc1nnc(OCc2ccc(C3COC3)cc2)s1)c1cccnc1N1CCOCC1 [Example 56, 2-morpholino-N-(5-((4-(oxetan-3-yl)benzyl)oxy)-1,3,4-thiadiazol-2-yl)nicotinamide]	1 to 10
